According to US20260216362A1, “ANTI-BDCA2 ANTIBODY-DRUG CONJUGATE AND USE THEREOF” (DUALITY BIOLOGICS (SHANGHAI) CO., LTD., priority 2022, published 2026):

Test system: human PBMC cells
Experiment: Inhibition by humanized antibodies of IFNα release from human PBMC cells stimulated by CpG-A
Assay type: cell-based
Conditions: Table 4, humanized antibodies; read-out: EC50, inhibition of release of cytokine IFNα from human PBMC cells stimulated by CpG-A
Method: A series of humanized candidate antibody molecules were selected and subjected to the function detection of inhibiting the release of the cytokine IFNα from the human PBMC cells stimulated by CpG-A. The cryopreserved human PBMC cells were thawed and incubated in a complete culture medium (1640+10% FBS+1×NEAA+1×L-Glutamine) overnight for 18 h. The next day, the PBMC cells were collected and centrifuged at 600 g for 8 min, and the supernatant was discarded. The cells were resuspended to 8×10^6 cells/mL in a culture medium (1640+10% FBS), and the mixture was added to a 3799 cell culture plate at 100 μL/well. The test antibody was diluted in a 10-fold gradient (0.0001 nM-10 nM, and 0 concentration point was used as a control) with the culture medium (1640+10% FBS), and the diluted antibody was added to the PBMCs at 50 μL/well. The cells were resuspended and then incubated at 37° C. for 6 h. 50 μL of CpG-A (2 μM, Invitrogen, tlrl-2216-5) diluted in the culture medium (1640+10% FBS) was added to each well and mixed, followed by incubation at 37° C. for another 20 h. […]
The antibody MT1/3/5 (Mabtech, 3425-1H-20) was diluted to 4 μg/mL with PBS, and added to a CORNING ELISA plate at 100 μL/well. […] The values at OD450 nm were read on an ELISA plate reader, and curves were fitted using GraphPad Prism6. […]

Q: With “BIIB059: reference antibody specifically binding to BDCA2, sequence derived from U.S. Pat. No. 9,902,775B2; SEQ ID NO: 25 and 26 [reference compound]” as the substance, how does the EC50 read?
A: 0.04 nM
